Legend:
Format in all cases: cell-based
[1] = system: Helicobacter pylori ATCC 700392; assay: Minimum inhibitory concentration (MIC) determination, broth microdilution; conditions: H. pylori ATCC 700392; 72 h, BHI broth with 7% FBS, no turbidity
Description: (§1) Helicobacter pylori ATCC 43504 and ATCC 700392 were purchased from the American Type Culture Collection (ATCC, Manassas, Va., USA). Cultures were grown in brain heart infusion (BHI) agar/broth (HiMedia, Mumbai India) supplemented with 7% (v/v) sheep blood or fetal bovine serum and incubated at 37° C. under microaerobic conditions (Na, 85%; 02, 5%; CO2, 10%) using an anaerobic chamber (Imset, Mumbai, India). Bacillus coagulans MTCC 5856 was grown in MRS media by adding inoculum (5% v/v) to the MRS broth and incubated at 37° C. for 24 h. After 24 h, the culture was centrifuged (5,000×g) to remove the cells and the supernatant was collected, concentrated 10-fold by lyophilization and filter sterilized through a 0.22 micron filter (Millipore, India). The cell-free supernatant was tested against H. pylori and 10-fold concentrated supernatant was also tested against H. pylori ATCC 43504 and ATCC 700392. The MICs of curcumin, β-glucogallin and mucic acid gallates extract and Piperine extract were determined as per the guidelines of Clinical and Laboratory Standards Institute (formerly the National Committee for Clinical Laboratory Standards). […] After incubation, plates were visually read for the absence or presence of turbidity. The minimum concentration of the compound concentration showing no turbidity was recorded as MIC.

[2] = system: Helicobacter pylori ATCC 43504; assay: as above; conditions: H. pylori ATCC 43504; 72 h, BHI broth with 7% FBS, no turbidity
Description: as §1

[3] = system: Helicobacter pylori ATCC 700392; assay: Well diffusion method, zones of inhibition; conditions: ATCC700392, 72 h, H. pylori ATCC 700392, 1000 μg/well, 3 days, 37° C., microaerobic
Description: (§2) Helicobacter pylori ATCC 43504 and ATCC 700392 were purchased from the American Type Culture Collection (ATCC, Manassas, Va., USA). Cultures were grown in brain heart infusion (BHI) agar/broth (HiMedia, Mumbai India) supplemented with 7% (v/v) sheep blood or fetal bovine serum and incubated at 37° C. under microaerobic conditions (Na, 85%; 02, 5%; CO2, 10%) using an anaerobic chamber (Imset, Mumbai, India). Bacillus coagulans MTCC 5856 was grown in MRS media by adding inoculum (5% v/v) to the MRS broth and incubated at 37° C. for 24 h. After 24 h, the culture was centrifuged (5,000×g) to remove the cells and the supernatant was collected, concentrated 10-fold by lyophilization and filter sterilized through a 0.22 micron filter (Millipore, India). The cell-free supernatant was tested against H. pylori and 10-fold concentrated supernatant was also tested against H. pylori ATCC 43504 and ATCC 700392. Similar to above, BHI agar plates supplemented with 7% (v/v) fetal bovine serum were prepared containing a strain of Helicobacter pylori ATCC 43504 or ATCC 700392. Further, well was made in the BHI agar plates containing Helicobacter pylori ATCC 43504 or ATCC 700392. […] After incubation, the antibacterial activities were evaluated by measuring a diameter of the inhibition zone. […]

[4] = system: Helicobacter pylori ATCC 43504; assay: Well diffusion method, zones of inhibition; conditions: ATCC43504, 72 h, H. pylori ATCC 43504, 1000 μg/well, 3 days, 37° C., microaerobic
Description: as §2

Compound: COc1cc(/C=C/C(=O)CC(=O)/C=C/c2ccc(O)c(OC)c2)ccc1O [Curcumin]
- MIC range [1]: 125 to 250 µg/mL
- MIC range [2]: 125 to 250 µg/mL
- zone of inhibition at 1000 µg/disc [3]: 14 ± 1.2 mm
- zone of inhibition at 1000 µg/disc [4]: 13 ± 1.2 mm

Reference: patent US10792295B2, “Compositions for management of Helicobacter pylori infections” (SAMI LABS LIMITED, priority 2017, dated 2020)
